Common to all, as to test: Glasshouse assay for herbicidal activity (pre- and post-emergence), percentage phytotoxicity
Common to all, as to type: in vivo

Assay [1] deals with Alopecurus myosuroides (ALOMY). The conditions noted are these: Alopecurus myosuroides. An outline of the steps:
(§1)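 Damage was rated visually as percent phytotoxicity, 100% meaning total kill, 20 days after pre-emergence application (made one day post-sowing) or 15 days after post-emergence application (made about 12 days post-sowing). Plants were grown under 16 h light, 65% humidity, warm species 24/18° C, cool 20/16° C.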

The subject of assay [2] is Echinochloa crus-galli (ECHCG). The conditions noted are these: Echinochloa crus-galli. Summed up:
as §1

The test system of the next assay is Avena fatua (AVEFA). The conditions noted are these: Avena fatua. An outline of the steps:
as §1

The test system of the next assay is Lolium perenne (LOLPE). Conditions: Lolium perenne. An outline of the steps:
as §1

The mark [3] stands for this setting: post-emergence, 360 h, Rate 250 g/ha, post-emergence, visual assessment 15 DAA, 100%=total damage, 0%=no damage, read-out: Post-emergence herbicidal activity (percentage phytotoxicity) ALOMY POST.
Setting [4] is: pre-emergence, 480 h, Rate 250 g/ha, pre-emergence, visual assessment 20 DAA, 100%=total damage, 0%=no damage, read-out: Pre-emergence herbicidal activity (percentage phytotoxicity) ALOMY PRE.
Setting [5] is: post-emergence, 360 h, Rate 250 g/ha, post-emergence, visual assessment 15 DAA, 100%=total damage, 0%=no damage, read-out: Post-emergence herbicidal activity (percentage phytotoxicity) ECHCG POST.
The mark [6] stands for this setting: pre-emergence, 480 h, Rate 250 g/ha, pre-emergence, visual assessment 20 DAA, 100%=total damage, 0%=no damage, read-out: Pre-emergence herbicidal activity (percentage phytotoxicity) ECHCG PRE.
Where [7] appears, read: post-emergence, 360 h, Rate 250 g/ha, post-emergence, visual assessment 15 DAA, 100%=total damage, 0%=no damage, read-out: Post-emergence herbicidal activity (percentage phytotoxicity) AVEFA POST.
Setting [8] is: pre-emergence, 480 h, Rate 250 g/ha, pre-emergence, visual assessment 20 DAA, 100%=total damage, 0%=no damage, read-out: Pre-emergence herbicidal activity (percentage phytotoxicity) AVEFA PRE.
[9] abbreviates: post-emergence, 360 h, Rate 250 g/ha, post-emergence, visual assessment 15 DAA, 100%=total damage, 0%=no damage, read-out: Post-emergence herbicidal activity (percentage phytotoxicity) LOLPE POST.
The mark [10] stands for this setting: pre-emergence, 480 h, Rate 250 g/ha, pre-emergence, visual assessment 20 DAA, 100%=total damage, 0%=no damage, read-out: Pre-emergence herbicidal activity (percentage phytotoxicity) LOLPE PRE.
Setting [11] is: post-emergence, 360 h, 250 g/ha, post-emergence, 15 DAA, visual assessment (100%=total damage, 0%=no damage), read-out: Post-emergence herbicidal activity (percentage phytotoxicity) ALOMY POST.
Where [12] appears, read: pre-emergence, 480 h, 250 g/ha, pre-emergence, 20 DAA, visual assessment (100%=total damage, 0%=no damage), read-out: Pre-emergence herbicidal activity (percentage phytotoxicity) ALOMY PRE.
[13] abbreviates: post-emergence, 360 h, 250 g/ha, post-emergence, 15 DAA, visual assessment (100%=total damage, 0%=no damage), read-out: Post-emergence herbicidal activity (percentage phytotoxicity) ECHCG POST.
Where [14] appears, read: pre-emergence, 480 h, 250 g/ha, pre-emergence, 20 DAA, visual assessment (100%=total damage, 0%=no damage), read-out: Pre-emergence herbicidal activity (percentage phytotoxicity) ECHCG PRE.
Where [15] appears, read: post-emergence, 360 h, 250 g/ha, post-emergence, 15 DAA, visual assessment (100%=total damage, 0%=no damage), read-out: Post-emergence herbicidal activity (percentage phytotoxicity) AVEFA POST.
The mark [16] stands for this setting: pre-emergence, 480 h, 250 g/ha, pre-emergence, 20 DAA, visual assessment (100%=total damage, 0%=no damage), read-out: Pre-emergence herbicidal activity (percentage phytotoxicity) AVEFA PRE.
Setting [17] is: post-emergence, 360 h, 250 g/ha, post-emergence, 15 DAA, visual assessment (100%=total damage, 0%=no damage), read-out: Post-emergence herbicidal activity (percentage phytotoxicity) LOLPE POST.
Where [18] appears, read: pre-emergence, 480 h, 250 g/ha, pre-emergence, 20 DAA, visual assessment (100%=total damage, 0%=no damage), read-out: Pre-emergence herbicidal activity (percentage phytotoxicity) LOLPE PRE.
Setting [19] is: post-emergence, 360 h, POST-emergence, rate 250 g/ha, visual score 15 DAA (100%=total damage, 0%=no damage), read-out: Post-emergence herbicidal activity (percentage phytotoxicity) ALOMY POST.
Where [20] appears, read: pre-emergence, 480 h, PRE-emergence, rate 250 g/ha, visual score 20 DAA (100%=total damage, 0%=no damage), read-out: Pre-emergence herbicidal activity (percentage phytotoxicity) ALOMY PRE.
Setting [21] is: post-emergence, 360 h, POST-emergence, rate 250 g/ha, visual score 15 DAA (100%=total damage, 0%=no damage), read-out: Post-emergence herbicidal activity (percentage phytotoxicity) ECHCG POST.
Where [22] appears, read: pre-emergence, 480 h, PRE-emergence, rate 250 g/ha, visual score 20 DAA (100%=total damage, 0%=no damage), read-out: Pre-emergence herbicidal activity (percentage phytotoxicity) ECHCG PRE.
Setting [23] is: post-emergence, 360 h, POST-emergence, rate 250 g/ha, visual score 15 DAA (100%=total damage, 0%=no damage), read-out: Post-emergence herbicidal activity (percentage phytotoxicity) AVEFA POST.
The mark [24] stands for this setting: pre-emergence, 480 h, PRE-emergence, rate 250 g/ha, visual score 20 DAA (100%=total damage, 0%=no damage), read-out: Pre-emergence herbicidal activity (percentage phytotoxicity) AVEFA PRE.
The mark [25] stands for this setting: post-emergence, 360 h, POST-emergence, rate 250 g/ha, visual score 15 DAA (100%=total damage, 0%=no damage), read-out: Post-emergence herbicidal activity (percentage phytotoxicity) LOLPE POST.
The mark [26] stands for this setting: pre-emergence, 480 h, PRE-emergence, rate 250 g/ha, visual score 20 DAA (100%=total damage, 0%=no damage), read-out: Pre-emergence herbicidal activity (percentage phytotoxicity) LOLPE PRE.

Read-outs that look alike come from different tables or passages of the source.

Regarding `C=CC(C)NC(=O)CC1CC(=O)C(c2c(C)cc(-c3ccc(F)cn3)cc2C)C1=O` (stereo not drawn) [Compound B390], the pest or weed control at 250 g/ha in assay [1] (setting [3]) worked out at 100%; in assay [1] (setting [4]), 100%; in assay [2] (setting [5]), 90%; in assay [2] (setting [6]), 100%; with Avena fatua (AVEFA) (setting [7]), 100%; with Avena fatua (AVEFA) (setting [8]), 100%. The pest or weed control at 250 g/ha in the assay with Lolium perenne (LOLPE) (setting [9]) worked out at 90%; with Lolium perenne (LOLPE) (setting [10]) it was 100%.
`Cc1ccnc(CNC(=O)CC2CC(=O)C(c3c(C)cc(C)cc3C)C2=O)c1` (stereo not drawn) [Compound B66]: the pest or weed control at 250 g/ha in assay [1] (setting [11]) was 90%; in assay [1] (setting [12]), 90%; in assay [2] (setting [13]) it was 80%; in assay [2] (setting [14]), 90%; in the assay with Avena fatua (AVEFA) (setting [15]) it was 80%; in the assay on Avena fatua (AVEFA) (setting [16]), 0%. For the same compound, the pest or weed control at 250 g/ha in the assay on Lolium perenne (LOLPE) (setting [17]) and in the assay on Lolium perenne (LOLPE) (setting [18]) was 90% each time.
Take `C=C(C)CNC(=O)CC1CC(=O)C(c2c(C)cc(-c3ccc(Br)cn3)cc2C)C1=O` (stereo not drawn) [Compound B298]: the pest or weed control at 250 g/ha in assay [1] (setting [19]) was found to be 100%; in assay [1] (setting [20]), 90%; in assay [2] (setting [21]) it was 100%; in assay [2] (setting [22]), 100%; with Avena fatua (AVEFA) (setting [23]), 100%; in the assay on Avena fatua (AVEFA) (setting [24]) it was 90%. Besides, the pest or weed control at 250 g/ha with Lolium perenne (LOLPE) (setting [25]) and with Lolium perenne (LOLPE) (setting [26]) was 90% throughout.
`Cc1cc(C)c(C2C(=O)CC(CC(=O)NC3(C)CCC3)C2=O)c(C)c1` (stereo not drawn) [Compound B32]: the pest or weed control at 250 g/ha in assay [1] (setting [11]) stood at 70%; in assay [1] (setting [12]), 90%; in assay [2] (setting [13]) it was 80%; in assay [2] (setting [14]), 80%; with Avena fatua (AVEFA) (setting [15]), 40%; with Avena fatua (AVEFA) (setting [16]) it was 0%. The pest or weed control at 250 g/ha was determined as 50% with Lolium perenne (LOLPE) (setting [17]) and 90% with Lolium perenne (LOLPE) (setting [18]).
For the compound `Cc1cc(-c2ncc(F)cc2F)cc(C)c1C1C(=O)CC(CC(=O)NCc2cccc(F)c2)C1=O` (stereo not drawn) [Compound B70], the pest or weed control at 250 g/ha in assay [1] (setting [11]) came to 100%; in assay [1] (setting [12]), 80%; in assay [2] (setting [13]), 100%; in assay [2] (setting [14]) it was 100%; in the assay with Avena fatua (AVEFA) (setting [15]), 100%; in the assay with Avena fatua (AVEFA) (setting [16]) it was 80%. Also, the pest or weed control at 250 g/ha in the assay on Lolium perenne (LOLPE) (setting [17]) worked out at 100%; with Lolium perenne (LOLPE) (setting [18]), 90%.
As to `Cc1cc(-c2ncc(F)cn2)cc(C)c1C1C(=O)CC(CC(=O)NC(C)(C)C)C1=O` (stereo not drawn) [Compound B5], the pest or weed control at 250 g/ha turned out to be 100% in assay [1] (setting [11]); 100% in assay [1] (setting [12]); 100% in assay [2] (setting [13]); 100% in assay [2] (setting [14]); 100% with Avena fatua (AVEFA) (setting [15]); 90% with Avena fatua (AVEFA) (setting [16]). Besides, the pest or weed control at 250 g/ha with Lolium perenne (LOLPE) (setting [17]) was determined as 90%; in the assay on Lolium perenne (LOLPE) (setting [18]), 100%.
As for `C#CCN(C)C(=O)CC1CC(=O)C(c2c(C)cc(-c3ccc(F)cn3)cc2C)C1=O` (stereo not drawn) [Compound B394], the pest or weed control at 250 g/ha (in assay [1] (setting [3]); in assay [1] (setting [4]); in assay [2] (setting [5]); in assay [2] (setting [6]); with Avena fatua (AVEFA) (setting [7]); in the assay with Avena fatua (AVEFA) (setting [8])) was 100% in each case. For the same compound, the pest or weed control at 250 g/ha with Lolium perenne (LOLPE) (setting [9]) was 90%; with Lolium perenne (LOLPE) (setting [10]), 100%.
Regarding `C#CCNC(=O)CC1CC(=O)C(c2c(C)cc(-c3ncc(F)cn3)cc2C)C1=O` (stereo not drawn) [Compound B333], the pest or weed control at 250 g/ha in assay [1] (setting [19]) is 100%; in assay [1] (setting [20]) it was 100%; in assay [2] (setting [21]), 100%; in assay [2] (setting [22]), 100%; with Avena fatua (AVEFA) (setting [23]), 40%; in the assay on Avena fatua (AVEFA) (setting [24]), 100%. In addition, the pest or weed control at 250 g/ha in the assay on Lolium perenne (LOLPE) (setting [25]) is 90%; with Lolium perenne (LOLPE) (setting [26]), 100%.
In the case of `Cc1cc(C)c(C2C(=O)CC(CC(=O)NCCF)C2=O)c(C)c1` (stereo not drawn) [Compound B61], the pest or weed control at 250 g/ha worked out at 80% in assay [1] (setting [11]); 70% in assay [1] (setting [12]); 90% in assay [2] (setting [13]); 90% in assay [2] (setting [14]); 90% in the assay with Avena fatua (AVEFA) (setting [15]); 70% in the assay on Avena fatua (AVEFA) (setting [16]). Also, the pest or weed control at 250 g/ha with Lolium perenne (LOLPE) (setting [17]) and in the assay with Lolium perenne (LOLPE) (setting [18]) was 90% throughout.
As for `Cc1cc(C)c(C2C(=O)CC(CC(=O)NCC3(C)CC3(Cl)Cl)C2=O)c(C)c1` (stereo not drawn) [Compound B82], the pest or weed control at 250 g/ha in assay [1] (setting [11]) turned out to be 70%; in assay [1] (setting [12]), 70%; in assay [2] (setting [13]), 50%; in assay [2] (setting [14]), 90%; in the assay on Avena fatua (AVEFA) (setting [15]), 60%; in the assay with Avena fatua (AVEFA) (setting [16]), 40%. Besides, the results for the pest or weed control at 250 g/ha in the assay on Lolium perenne (LOLPE) (setting [17]) and with Lolium perenne (LOLPE) (setting [18]) were 70% and 80%, respectively.
As to `C/C=C/c1cc(C)c(C2C(=O)CC(CC(=O)N(C)C(C)(C)C)C2=O)c(CC)c1` (stereo not drawn) [Compound B274], the pest or weed control at 250 g/ha is 100% in assay [1] (setting [19]); 70% in assay [1] (setting [20]); 100% in assay [2] (setting [21]); 70% in assay [2] (setting [22]); 100% with Avena fatua (AVEFA) (setting [23]); 50% in the assay with Avena fatua (AVEFA) (setting [24]). In addition, the values for the pest or weed control at 250 g/ha with Lolium perenne (LOLPE) (setting [25]) and in the assay with Lolium perenne (LOLPE) (setting [26]) were 90% and 70%, respectively.
Consider `C=C(Cl)CNC(=O)CC1CC(=O)C(c2c(C)cc(C)cc2C)C1=O` (stereo not drawn) [Compound B133], for which the pest or weed control at 250 g/ha in assay [1] (setting [11]) turned out to be 50%; in assay [1] (setting [12]), 80%; in assay [2] (setting [13]) it was 50%; in assay [2] (setting [14]) it was 80%; in the assay with Avena fatua (AVEFA) (setting [15]) it was 60%; in the assay on Avena fatua (AVEFA) (setting [16]), 0%. Also, the pest or weed control at 250 g/ha came out at 90% in the assay on Lolium perenne (LOLPE) (setting [17]) and 100% in the assay with Lolium perenne (LOLPE) (setting [18]).

Values taken from patent US10206394B2, “Herbicidal compounds” (Syngenta Participations AG, priority 2014, dated 2019).
